Activity calls are given as the source filed them.
Experiments:
[1] = molecular target: Cytochrome P450 3A4 (Homo sapiens, UniProt P08684);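 further: CYP3A4 tested as one member of a cytochrome P450 panel screen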
[2] = molecular target: Cytochrome P450 2D6 (Homo sapiens, UniProt P10635);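 further: CYP2D6 member of a cytochrome P450 panel assay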
[3] = molecular target: Cytochrome P450 2C9 (Homo sapiens, UniProt P11712)
[4] = human group III sPLA2 inhibitors, dose response, biochemical, QFRET, IC50 (AID 743457);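 further: green fluorescence rise as the enzyme cleaves BODIPY PC-A2 in liposomes; potency for inhibition of the enzyme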
[5] = Counterscreen for inhibitors of Trypanosoma brucei methionyl tRNA synthetase (MetRS): Luminescence-based cell-based high throughput dose response assay to identify compounds that are cytotoxic to Jurkat human T lymphocyte cells.; format: functional
[6] = molecular target: T1, Methionyl-tRNA synthetase, putative (Trypanosoma brucei brucei, UniProt Q38C91); format: functional, Trypanosoma brucei brucei strain 927/4 GUTat10.1
T1 sequence (Q38C91 whole entry): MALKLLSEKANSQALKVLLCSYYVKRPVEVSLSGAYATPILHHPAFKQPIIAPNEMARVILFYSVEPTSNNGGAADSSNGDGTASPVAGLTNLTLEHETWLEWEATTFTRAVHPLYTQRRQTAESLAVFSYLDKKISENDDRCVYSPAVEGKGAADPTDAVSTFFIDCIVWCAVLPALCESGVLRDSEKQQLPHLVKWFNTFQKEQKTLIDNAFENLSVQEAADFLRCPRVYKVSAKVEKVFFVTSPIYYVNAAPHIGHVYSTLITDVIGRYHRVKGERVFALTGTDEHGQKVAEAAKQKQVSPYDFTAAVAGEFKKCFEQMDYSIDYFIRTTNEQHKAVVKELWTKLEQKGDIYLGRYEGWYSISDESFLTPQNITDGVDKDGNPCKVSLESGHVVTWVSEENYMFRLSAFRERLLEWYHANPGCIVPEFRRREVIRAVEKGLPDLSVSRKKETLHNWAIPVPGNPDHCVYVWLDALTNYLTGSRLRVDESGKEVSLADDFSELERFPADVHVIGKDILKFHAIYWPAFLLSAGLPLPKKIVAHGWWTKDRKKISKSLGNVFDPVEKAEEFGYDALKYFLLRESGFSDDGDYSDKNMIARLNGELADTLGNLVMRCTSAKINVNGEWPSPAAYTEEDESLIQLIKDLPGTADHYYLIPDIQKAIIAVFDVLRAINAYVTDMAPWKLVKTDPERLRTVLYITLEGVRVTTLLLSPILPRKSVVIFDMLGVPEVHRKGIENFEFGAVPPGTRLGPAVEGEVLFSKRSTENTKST

[7] = molecular target: Photoreceptor-specific nuclear receptor (Homo sapiens, UniProt Q9Y5X4); format: functional, cell-based;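 further: CHO-S cells with Gal4-NCOR and VP16-NR2E3 two-hybrid luciferase reporter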
[8] = molecular target: SWI/SNF-related matrix-associated actin-dependent regulator of chromatin subfamily A member 2 (Homo sapiens, UniProt P51531); assay: Luminescence-based cell-based high throughput dose response assay to identify activators of the function of SWI/SNF related, matrix associated, actin dependent regulator of chromatin, subfamily a, member 2 (SMARCA2, BRM).; format: functional
[9] = molecular target: T1, Methionyl-tRNA synthetase, putative; format: functional, Trypanosoma brucei brucei strain 927/4 GUTat10.1; remark: listed apart in the source
[10] = Counterscreen for activators of the function of SWI/SNF related, matrix associated, actin dependent regulator of chromatin, subfamily a, member 2 (SMARCA2, BRM): Luminescence-based cell-based high throughput dose response assay to identify non-selective compounds using the VP16 reporter assay.; format: functional
[11] = molecular target: Matrix metalloproteinase-14 (Homo sapiens, UniProt P50281); assay: Dose Response confirmation of uHTS hits for a small molecule inhibitors of MT1-MMP activation in a fluorescence assay set 1.; format: functional
[12] = test system: Vero; assay: cells; format: functional; conditions: Chlorocebus sabaeus
[13] = Luminescence Cell-Based Dose Retest to Confirm Inhibitors of Cancer Stem Cells. [Related pubchem assays (depositor defined):AID2717, AID2721]; format: functional; conditions: Homo sapiens
[14] = growth suppression of beta-catenin-knockout colon cells, dose response, cell-based, HCT116, human colon tumor (AID 1045); format: functional;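 further: HCT116 colon tumor cells with beta catenin knocked out; cells exposed to compound for 60 hours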
[15] = cytotoxicity in HMLE control line with eGFP shRNA, dose response, counter-screen for HMLE_sh_ECad selective toxicity project, cell-based, HMLE_sh_eGFP, luminescence (AID 463074); format: functional, Homo sapiens;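 further: HMLE human mammary epithelial cells expressing control shRNA against eGFP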
[16] = growth suppression of PTEN-null colon cells, dose response, cell-based, HCT116 PTEN knockout (AID 1047); format: functional;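 further: HCT116 colon tumor cells with PTEN knocked out; cells exposed to compound for 60 hours before readout; potency for loss of cell viability measured by luminescence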
[17] = molecular target: DNA dC->dU-editing enzyme APOBEC-3A (Homo sapiens, UniProt P31941); assay: Dose Response confirmation of small molecule APOBEC3A DNA Deaminase Inhibitors via a fluorescence-based single-stranded DNA deaminase assay. [Related pubchem assays (depositor defined):AID493011, AID493024]; format: functional
[18] = molecular target: DNA dC->dU-editing enzyme APOBEC-3G (Homo sapiens, UniProt Q9HC16); format: functional;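 further: Dose-response counterscreen measuring inhibition of APOBEC3G DNA deaminase activity, run while confirming APOBEC3A inhibitors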
[19] = molecular target: Histone-lysine N-methyltransferase NSD2 (Homo sapiens, UniProt O96028); format: biochemical
[20] = molecular target: Beta-galactosidase (Escherichia coli, UniProt Q8VNN2); assay: Dose response counterscreen for EBI2 assay utilizing the enzyme, b-galactosidase.; format: functional
[21] = molecular target: Fructose-bisphosphate aldolase (Mycobacterium tuberculosis, UniProt P9WQA3); assay: Fluorescence-based biochemical high throughput dose response assay for inhibitors of the fructose-bisphosphate aldolase (FBA) of M. tuberculosis.; format: functional
[22] = Late stage assay provider results from the probe development effort to identify inhibitors of the Plasmodium falciparum M17 Leucine Aminopeptidase (M17LAP): radiolabel-based cell-based dose response assay to identify compounds that inhibit P. falciparum growth in RBCs Set 2.; format: functional
[23] = test system: A549; assay: A549 cell toxicity, dose response, cytotoxicity control, plate reader, cherry-pick samples (AID 687028); format: functional, cell-based; conditions: Homo sapiens
[24] = molecular target: Albumin (Bos taurus, UniProt P02769); assay: Counterscreen for inhibitors of T-cell receptor (TCR)-CD3 interaction: Fluorescence-based biochemical high throughput dose response assay to identify inhibitors of T-cell receptor (TCR)-CD3 interaction using a TAMRA-labeled BSA probe.; format: functional
[25] = test system: Vero; assay: Vero cell toxicity, dose response, cytotoxicity control, plate reader, cherry-pick samples (AID 687020); format: functional, cell-based; conditions: Chlorocebus sabaeus

Chain of DNA dC->dU-editing enzyme APOBEC-3G (Q9HC16 whole entry): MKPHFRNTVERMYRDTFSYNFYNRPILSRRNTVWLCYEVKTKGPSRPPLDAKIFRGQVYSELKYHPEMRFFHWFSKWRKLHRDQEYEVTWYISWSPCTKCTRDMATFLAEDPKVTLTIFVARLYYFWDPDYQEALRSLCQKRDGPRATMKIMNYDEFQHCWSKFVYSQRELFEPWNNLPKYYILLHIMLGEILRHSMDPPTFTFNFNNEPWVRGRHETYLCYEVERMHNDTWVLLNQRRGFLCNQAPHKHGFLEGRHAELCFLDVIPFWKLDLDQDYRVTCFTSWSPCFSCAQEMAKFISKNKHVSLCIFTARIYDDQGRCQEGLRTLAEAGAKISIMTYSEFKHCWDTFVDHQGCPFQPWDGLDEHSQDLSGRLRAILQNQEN
Chain of Histone-lysine N-methyltransferase NSD2 (O96028 whole entry): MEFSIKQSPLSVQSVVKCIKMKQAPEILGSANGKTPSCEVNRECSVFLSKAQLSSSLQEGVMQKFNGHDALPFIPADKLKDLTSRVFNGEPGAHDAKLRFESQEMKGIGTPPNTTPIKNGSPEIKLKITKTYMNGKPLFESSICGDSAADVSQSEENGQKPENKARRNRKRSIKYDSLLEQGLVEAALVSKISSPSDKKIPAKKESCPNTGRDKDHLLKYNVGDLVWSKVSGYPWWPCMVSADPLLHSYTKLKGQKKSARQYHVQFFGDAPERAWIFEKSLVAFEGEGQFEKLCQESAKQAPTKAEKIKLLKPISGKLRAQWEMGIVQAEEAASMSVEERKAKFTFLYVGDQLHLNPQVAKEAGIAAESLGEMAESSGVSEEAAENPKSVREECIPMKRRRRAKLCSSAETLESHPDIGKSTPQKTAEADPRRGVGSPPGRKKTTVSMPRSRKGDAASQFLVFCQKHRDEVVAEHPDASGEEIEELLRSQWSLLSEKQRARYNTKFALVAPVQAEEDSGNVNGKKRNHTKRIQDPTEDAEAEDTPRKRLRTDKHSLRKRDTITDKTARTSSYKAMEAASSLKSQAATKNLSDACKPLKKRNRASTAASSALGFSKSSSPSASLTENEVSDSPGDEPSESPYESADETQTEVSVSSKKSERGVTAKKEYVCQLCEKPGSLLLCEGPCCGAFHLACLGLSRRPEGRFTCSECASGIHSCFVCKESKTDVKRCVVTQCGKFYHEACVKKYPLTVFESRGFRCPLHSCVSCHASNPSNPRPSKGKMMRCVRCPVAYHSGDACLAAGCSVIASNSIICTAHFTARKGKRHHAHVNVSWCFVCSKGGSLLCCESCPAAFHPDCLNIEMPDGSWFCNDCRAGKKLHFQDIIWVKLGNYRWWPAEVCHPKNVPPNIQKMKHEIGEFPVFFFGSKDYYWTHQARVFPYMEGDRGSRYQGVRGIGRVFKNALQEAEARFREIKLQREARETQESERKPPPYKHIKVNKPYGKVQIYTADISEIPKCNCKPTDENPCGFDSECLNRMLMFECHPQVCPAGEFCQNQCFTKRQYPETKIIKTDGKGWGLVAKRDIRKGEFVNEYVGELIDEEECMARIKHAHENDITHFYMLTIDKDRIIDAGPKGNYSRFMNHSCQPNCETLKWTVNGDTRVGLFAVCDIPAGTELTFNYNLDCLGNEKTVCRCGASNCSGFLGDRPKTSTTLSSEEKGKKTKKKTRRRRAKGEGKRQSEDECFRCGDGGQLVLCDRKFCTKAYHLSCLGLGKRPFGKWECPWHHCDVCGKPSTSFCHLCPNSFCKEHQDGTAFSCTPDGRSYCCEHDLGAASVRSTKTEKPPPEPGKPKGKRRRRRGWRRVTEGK
Chain of Photoreceptor-specific nuclear receptor (Q9Y5X4 whole entry, the tested form may be a part): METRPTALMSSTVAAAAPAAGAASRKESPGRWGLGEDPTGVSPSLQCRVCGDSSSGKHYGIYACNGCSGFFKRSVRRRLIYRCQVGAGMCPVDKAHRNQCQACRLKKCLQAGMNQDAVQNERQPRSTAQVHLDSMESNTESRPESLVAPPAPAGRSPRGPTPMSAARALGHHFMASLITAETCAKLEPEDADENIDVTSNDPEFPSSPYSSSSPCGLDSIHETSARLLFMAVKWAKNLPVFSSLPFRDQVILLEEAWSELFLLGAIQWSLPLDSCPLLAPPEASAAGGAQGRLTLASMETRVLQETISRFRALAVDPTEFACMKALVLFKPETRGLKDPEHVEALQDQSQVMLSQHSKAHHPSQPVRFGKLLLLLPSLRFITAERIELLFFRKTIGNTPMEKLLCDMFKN
Chain of SWI/SNF-related matrix-associated actin-dependent regulator of chromatin subfamily A member 2 (P51531 whole entry): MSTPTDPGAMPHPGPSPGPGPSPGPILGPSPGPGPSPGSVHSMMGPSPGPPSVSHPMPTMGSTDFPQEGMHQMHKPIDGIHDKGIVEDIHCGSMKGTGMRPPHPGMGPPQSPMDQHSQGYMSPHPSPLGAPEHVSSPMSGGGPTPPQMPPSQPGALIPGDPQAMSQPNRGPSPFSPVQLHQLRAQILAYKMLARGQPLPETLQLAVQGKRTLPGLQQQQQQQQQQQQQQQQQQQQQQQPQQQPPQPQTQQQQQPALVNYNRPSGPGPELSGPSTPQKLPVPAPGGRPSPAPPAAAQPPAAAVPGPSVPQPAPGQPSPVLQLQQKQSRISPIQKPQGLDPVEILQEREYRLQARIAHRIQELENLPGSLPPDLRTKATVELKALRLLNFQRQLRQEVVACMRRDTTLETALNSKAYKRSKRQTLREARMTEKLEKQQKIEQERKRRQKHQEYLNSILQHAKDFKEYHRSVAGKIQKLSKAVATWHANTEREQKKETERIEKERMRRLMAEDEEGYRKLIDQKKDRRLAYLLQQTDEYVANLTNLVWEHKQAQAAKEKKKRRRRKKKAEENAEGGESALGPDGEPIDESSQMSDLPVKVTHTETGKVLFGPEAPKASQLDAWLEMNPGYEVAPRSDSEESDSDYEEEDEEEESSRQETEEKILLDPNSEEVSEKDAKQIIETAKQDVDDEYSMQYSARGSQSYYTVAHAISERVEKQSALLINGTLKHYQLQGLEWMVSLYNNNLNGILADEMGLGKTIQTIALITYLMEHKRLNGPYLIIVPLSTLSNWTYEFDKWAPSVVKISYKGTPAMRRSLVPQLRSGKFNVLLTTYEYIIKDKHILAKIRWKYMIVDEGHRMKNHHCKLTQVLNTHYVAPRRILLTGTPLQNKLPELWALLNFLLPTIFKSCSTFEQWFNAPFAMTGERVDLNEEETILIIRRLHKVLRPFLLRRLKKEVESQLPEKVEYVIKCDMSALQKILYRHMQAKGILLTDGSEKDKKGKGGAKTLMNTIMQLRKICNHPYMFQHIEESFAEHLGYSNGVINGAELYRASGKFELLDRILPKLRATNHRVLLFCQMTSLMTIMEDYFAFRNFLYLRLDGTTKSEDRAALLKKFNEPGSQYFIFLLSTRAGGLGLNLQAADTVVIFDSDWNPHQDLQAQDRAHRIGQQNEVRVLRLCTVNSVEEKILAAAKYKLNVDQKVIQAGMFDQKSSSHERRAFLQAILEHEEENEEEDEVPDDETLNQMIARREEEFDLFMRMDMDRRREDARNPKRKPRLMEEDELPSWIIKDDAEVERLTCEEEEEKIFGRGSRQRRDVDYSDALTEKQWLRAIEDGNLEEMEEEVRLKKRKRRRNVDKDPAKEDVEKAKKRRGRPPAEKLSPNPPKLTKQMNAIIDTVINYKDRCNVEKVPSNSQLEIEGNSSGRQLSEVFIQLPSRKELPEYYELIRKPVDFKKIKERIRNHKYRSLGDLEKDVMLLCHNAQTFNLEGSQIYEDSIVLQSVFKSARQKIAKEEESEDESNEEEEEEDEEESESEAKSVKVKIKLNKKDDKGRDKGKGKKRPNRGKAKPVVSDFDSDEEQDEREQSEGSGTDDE
Chain of Fructose-bisphosphate aldolase (P9WQA3 whole entry): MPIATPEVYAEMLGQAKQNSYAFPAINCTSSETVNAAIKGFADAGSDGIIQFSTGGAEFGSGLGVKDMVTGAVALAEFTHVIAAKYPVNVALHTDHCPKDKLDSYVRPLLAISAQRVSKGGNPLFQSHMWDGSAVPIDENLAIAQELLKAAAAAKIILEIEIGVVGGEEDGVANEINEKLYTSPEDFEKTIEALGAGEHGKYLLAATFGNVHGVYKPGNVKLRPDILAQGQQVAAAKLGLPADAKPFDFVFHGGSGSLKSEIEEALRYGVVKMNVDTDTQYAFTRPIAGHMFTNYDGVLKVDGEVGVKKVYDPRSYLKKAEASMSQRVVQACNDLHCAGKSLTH
Chain of Cytochrome P450 2D6 (P10635 whole entry): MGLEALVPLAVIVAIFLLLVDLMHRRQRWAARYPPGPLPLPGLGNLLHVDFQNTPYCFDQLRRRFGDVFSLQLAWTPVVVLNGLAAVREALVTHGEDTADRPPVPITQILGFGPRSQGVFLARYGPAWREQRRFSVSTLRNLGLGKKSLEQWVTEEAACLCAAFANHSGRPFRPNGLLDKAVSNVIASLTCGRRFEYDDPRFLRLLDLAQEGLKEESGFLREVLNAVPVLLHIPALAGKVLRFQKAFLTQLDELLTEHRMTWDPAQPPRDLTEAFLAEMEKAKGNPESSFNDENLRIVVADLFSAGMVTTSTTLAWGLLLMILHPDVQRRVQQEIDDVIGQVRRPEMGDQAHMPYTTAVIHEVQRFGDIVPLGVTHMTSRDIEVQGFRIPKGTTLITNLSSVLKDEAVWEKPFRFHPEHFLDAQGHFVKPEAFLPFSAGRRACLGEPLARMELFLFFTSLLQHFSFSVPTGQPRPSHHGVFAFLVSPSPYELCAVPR
Chain of DNA dC->dU-editing enzyme APOBEC-3A (P31941 whole entry): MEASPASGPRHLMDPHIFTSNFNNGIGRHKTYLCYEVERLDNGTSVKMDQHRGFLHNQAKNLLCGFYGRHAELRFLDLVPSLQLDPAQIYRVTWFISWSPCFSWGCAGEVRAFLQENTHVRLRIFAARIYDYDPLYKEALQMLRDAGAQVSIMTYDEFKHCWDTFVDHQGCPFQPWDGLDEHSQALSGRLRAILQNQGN

S=C(Nc1ccccc1)Nc1nccs1
AC50 [1]: 15.8 µM (inconclusive) | AC50 [2]: 31.6 µM (inconclusive) | AC50 [3]: 20 µM (inconclusive) | IC50 [4]: > 122 µM (inactive)

Cc1cccc(OCCCC(=O)Nc2nc3ccccc3[nH]2)c1
IC50 [5]: 29.6 µM (inactive) | IC50 [6]: 39.5 µM (inactive) | IC50 [7]: 2.88 µM (active) | EC50 [8]: > 91.1 µM (inactive) | IC50 [9]: 4.34 µM (active) | EC50 [10]: > 91.1 µM (inactive)

O=C(NNc1c2ccccc2nc2ccccc12)c1cc2ccccc2cc1O
IC50 [11]: 24.4 µM (inactive) | CC50 [12]: 2.61 µM (active) | AC50 [13]: 27 µM (active) | EC50 [14]: 7.12 µM (active) | AC50 [15]: 28.2 µM (active) | EC50 [16]: 6.4 µM (active)

Cc1cc(/C=C2\C(=O)NC(=O)N(c3cccc(F)c3)C2=O)c(C)n1-c1cc(C(=O)O)cc(C(=O)O)c1
IC50 [17]: 16.8 µM (active) | IC50 [18]: 27.4 µM (active) | AC50 [19]: > 20 µM (inactive)

COC(=O)c1cc(=O)n(Cc2ccc(F)cc2)/c(=N/c2ccccc2)s1
AC50 [13]: 4.82 µM (active) | IC50 [20]: > 80 µM (inactive)

COC1=Nc2ccccc2N2CCN=C12
IC50 [21]: 2.07 µM (active)

CCCCc1ccc(CC(=O)NO)cc1
IC50 [22]: 4.3 µM (active)

O=C(NNC(=O)c1ccccc1O)c1ccccc1O
AC50 [23]: 2.46 µM (active) | IC50 [24]: > 93.9 µM (inactive) | AC50 [25]: 1.05 µM (active)

From ChEMBL document CHEMBL1201862, “PubChem BioAssay data set” (2004)
